Test system: Utrophin A promoter linked to a luciferase reporter gene (H2K/mdx/Utro A reporter cell line)
Experiment: Luciferase reporter assay (murine H2K cells)
Format: cell-based
Conditions: Mus musculus; Table 1; murine H2K mdx myoblasts, compound final concentration 10 μM, 48 hrs; read-out: Activity (luciferase reporter assay, relative to control)
Procedure: 1. Luciferase Reporter Assay (Murine H2K Cells)
The cell line used for the screen is an immortalized mdx mouse H2K cell line that has been stably transfected with a plasmid containing ≈5 kb fragment of the Utrophin A promoter including the first untranslated exon linked to a luciferase reporter gene (see FIG. 1).
Under conditions of low temperature and interferon containing media, the cells remain as myoblasts. These are plated into 96 well plates and cultured in the presence of compound for three days. The level of luciferase is then determined by cell lysis and reading of the light output from the expressed luciferase gene utilising a plate luminometer.
The H2K/mdx/Utro A reporter cell line was passaged twice a week until ≦30% confluent. The cells were grown at 33° C. in the presence of 10% CO2
The H2K/mdx/Utro A reporter cell line cells were plated out into 96 well plates (Falcon 353296, white opaque) at a density of approximately 5000 cells/well in 190 μl normal growth medium. The plates were then incubated at 33° C. in the presence of 10% CO2 for 24 hrs.
Compounds were dosed by adding 10 μl of diluted compound to each well giving a final concentration of 10 μM. The plates were then incubated for a further 48 hrs
Cells were then lysed in situ following the manufacture's protocols (Promega Steady-Glo Luciferase Assay System (E2520). Then counted for 10 seconds using a plate luminometer (Victorl420).

SMILES | activity at 10 µM
Cc1cc2nn(-c3ccc(Cl)cc3)nc2cc1NC(=O)c1cccnc1 [Example 1, N-(2-(4-chlorophenyl)-6-methyl-2H-benzo[d][1,2,3]triazol-5-yl)nicotinamide] | 301 to 400%
Cc1cc2nn(-c3ccc(Cl)cc3)nc2cc1NC(=O)c1ccncc1 [Example 2, N-(2-(4-chlorophenyl)-6-methyl-2H-benzo[d][1,2,3]triazol-5-yl)isonicotinamide] | 201 to 300%
Cc1cc2nn(-c3ccc(Cl)cc3)nc2cc1NC(=O)c1ccccc1 [Example 3, N-(2-(4-chlorophenyl)-6-methyl-2H-benzo[d][1,2,3]triazol-5-yl)benzamide] | < 200%
COc1ccc(C(=O)Nc2cc3nn(-c4ccc(Cl)cc4)nc3cc2C)cc1 [Example 4, N-(2-(4-chlorophenyl)-6-methyl-2H-benzo[d][1,2,3]triazol-5-yl)-4-methoxybenzamide] | 201 to 300%
COc1ccccc1C(=O)Nc1cc2nn(-c3ccc(Cl)cc3)nc2cc1C [Example 5, N-(2-(4-chlorophenyl)-6-methyl-2H-benzo[d][1,2,3]triazol-5-yl)-2-methoxybenzamide] | < 200%
Cc1cc2nn(-c3ccc(Cl)cc3)nc2cc1NC(=O)c1cccs1 [Example 6, N-(2-(4-chlorophenyl)-6-methyl-2H-benzo[d][1,2,3]triazol-5-yl)thiophene-2-carboxamide] | 301 to 400%
CCC(=O)Nc1cc2nn(-c3ccc(Cl)cc3)nc2cc1C [Example 7, N-(2-(4-chlorophenyl)-6-methyl-2H-benzo[d][1,2,3]triazol-5-yl)propionamide] | < 200%
CCCC(=O)Nc1cc2nn(-c3ccc(Cl)cc3)nc2cc1C [Example 8, N-(2-(4-chlorophenyl)-6-methyl-2H-benzo[d][1,2,3]triazol-5-yl)butyramide] | 201 to 300%
CCCCC(=O)Nc1cc2nn(-c3ccc(Cl)cc3)nc2cc1C [Example 9, N-(2-(4-chlorophenyl)-6-methyl-2H-benzo[d][1,2,3]triazol-5-yl)pentanamide] | 201 to 300%
Cc1cc2nn(-c3ccc(Cl)cc3)nc2cc1NC(=O)C(C)C [Example 10, N-(2-(4-chlorophenyl)-6-methyl-2H-benzo[d][1,2,3]triazol-5-yl)isobutyramide] | 201 to 300%
Cc1cc2nn(-c3ccc(Cl)cc3)nc2cc1NC(=O)c1ccco1 [Example 11, N-(2-(4-chlorophenyl)-6-methyl-2H-benzo[d][1,2,3]triazol-5-yl)furan-2-carboxamide] | 201 to 300%
CCN(CC)c1ccc(-n2nc3cc(C)c(NC(=O)c4cccnc4)cc3n2)cc1 [Example 12, N-(2-(4-(diethylamino)phenyl)-6-methyl-2H-benzo[d][1,2,3]triazol-5-yl)nicotinamide] | 301 to 400%
CCN(CC)c1ccc(-n2nc3cc(C)c(NC(=O)c4ccncc4)cc3n2)cc1 [Example 13, N-(2-(4-(diethylamino)phenyl)-6-methyl-2H-benzo[d][1,2,3]triazol-5-yl)isonicotinamide] | 301 to 400%
CCC(=O)Nc1cc2nn(-c3ccc(N(CC)CC)cc3)nc2cc1C [Example 14, N-(2-(4-(diethylamino)phenyl)-6-methyl-2H-benzo[d][1,2,3]triazol-5-yl)propionamide] | < 200%
CCCC(=O)Nc1cc2nn(-c3ccc(N(CC)CC)cc3)nc2cc1C [Example 15, N-(2-(4-(diethylamino)phenyl)-6-methyl-2H-benzo[d][1,2,3]triazol-5-yl)butyramide] | < 200%
CCCCC(=O)Nc1cc2nn(-c3ccc(N(CC)CC)cc3)nc2cc1C [Example 16, N-(2-(4-(diethylamino)phenyl)-6-methyl-2H-benzo[d][1,2,3]triazol-5-yl)pentanamide] | < 200%

SMILES | activity at 10 µM
CCN(CC)c1ccc(-n2nc3cc(C)c(NC(=O)C(C)C)cc3n2)cc1 [Example 17, N-(2-(4-(diethylamino)phenyl)-6-methyl-2H-benzo[d][1,2,3]triazol-5-yl)isobutyramide] | < 200%
CCN(CC)c1ccc(-n2nc3cc(C)c(NC(=O)c4ccco4)cc3n2)cc1 [Example 18, N-(2-(4-(diethylamino)phenyl)-6-methyl-2H-benzo[d][1,2,3]triazol-5-yl)furan-2-carboxamide] | < 200%
CCN(CC)c1ccc(-n2nc3ccc(N)cc3n2)cc1 [Example 19, 2-(4-(diethylamino)phenyl)-2H-benzo[d][1,2,3]triazol-5-amine] | 301 to 400%
CCN(CC)c1ccc(-n2nc3ccc(NC(=O)c4cccnc4)cc3n2)cc1 [Example 20, N-(2-(4-(diethylamino)phenyl)-2H-benzo[d][1,2,3]triazol-5-yl)nicotinamide] | 201 to 300%
CCN(CC)c1ccc(-n2nc3ccc(NC(=O)c4ccncc4)cc3n2)cc1 [Example 21, N-(2-(4-(diethylamino)phenyl)-2H-benzo[d][1,2,3]triazol-5-yl)isonicotinamide] | < 200%
CCN(CC)c1ccc(-n2nc3ccc(NC(C)=O)cc3n2)cc1 [Example 22, N-(2-(4-(diethylamino)phenyl)-2H-benzo[d][1,2,3]triazol-5-yl)acetamide] | 201 to 300%
CCC(=O)Nc1ccc2nn(-c3ccc(N(CC)CC)cc3)nc2c1 [Example 23, N-(2-(4-(diethylamino)phenyl)-2H-benzo[d][1,2,3]triazol-5-yl)propionamide] | < 200%
CCCC(=O)Nc1ccc2nn(-c3ccc(N(CC)CC)cc3)nc2c1 [Example 24, N-(2-(4-(diethylamino)phenyl)-2H-benzo[d][1,2,3]triazol-5-yl)butyramide] | < 200%
CCCCC(=O)Nc1ccc2nn(-c3ccc(N(CC)CC)cc3)nc2c1 [Example 25, N-(2-(4-(diethylamino)phenyl)-2H-benzo[d][1,2,3]triazol-5-yl)pentanamide] | < 200%
CCN(CC)c1ccc(-n2nc3ccc(NC(=O)C(C)C)cc3n2)cc1 [Example 26, N-(2-(4-(diethylamino)phenyl)-2H-benzo[d][1,2,3]triazol-5-yl)isobutyramide] | < 200%
CCN(CC)c1ccc(-n2nc3ccc(NC(=O)c4ccco4)cc3n2)cc1 [Example 27, N-(2-(4-(diethylamino)phenyl)-2H-benzo[d][1,2,3]triazol-5-yl)furan-2-carboxamide] | < 200%
CCN(CC)c1ccc(-n2nc3ccc(NC(=O)c4cccs4)cc3n2)cc1 [Example 28, N-(2-(4-(diethylamino)phenyl)-2H-benzo[d][1,2,3]triazol-5-yl)thiophene-2-carboxamide] | < 200%
CCN(CC)c1ccc(-n2nc3ccc(NC(=O)c4ccccc4)cc3n2)cc1 [Example 29, N-(2-(4-(diethylamino)phenyl)-2H-benzo[d][1,2,3]triazol-5-yl)benzamide] | < 200%
CCN(CC)c1ccc(-n2nc3ccc(NC(=O)c4ccc(OC)cc4)cc3n2)cc1 [Example 30, N-(2-(4-(diethylamino)phenyl)-2H-benzo[d][1,2,3]triazol-5-yl)-4-methoxybenzamide] | < 200%
CCN(CC)c1ccc(-n2nc3ccc(NC(=O)c4ccccc4OC)cc3n2)cc1 [Example 31, N-(2-(4-(diethylamino)phenyl)-2H-benzo[d][1,2,3]triazol-5-yl)-2-methoxybenzamide] | < 200%
